Test results taken from patent publication US7138246B2, “Methods for identifying or screening for agents that modulate 17β-HSD3” (Bristol-Myers Squibb Company, priority 2004, dated 2006).
Like-named read-outs stand apart in the source and are kept apart here.

How the values were obtained:
17β-HSD3 [1] = target: T1, 17β-HSD3 (Homo sapiens, UniProt P37058); test: 17β-HSD3 scintillation proximity assay (SPA); type: biochemical; set-up: made in house; CHAPS-solubilised 100,000 x g supernatant
T1 sequence (P37058 1-310): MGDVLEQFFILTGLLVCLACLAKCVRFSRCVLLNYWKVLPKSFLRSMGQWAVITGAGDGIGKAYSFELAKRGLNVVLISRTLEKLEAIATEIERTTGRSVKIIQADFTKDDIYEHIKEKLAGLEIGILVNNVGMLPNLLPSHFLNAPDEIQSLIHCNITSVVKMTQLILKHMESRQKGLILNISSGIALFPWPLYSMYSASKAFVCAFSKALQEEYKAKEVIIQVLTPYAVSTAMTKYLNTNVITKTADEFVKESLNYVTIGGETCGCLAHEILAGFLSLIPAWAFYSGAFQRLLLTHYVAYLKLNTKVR
Description: (§1) HEK293/17β-HSD3 cells were harvested by scraping or treatment with Cell Dissociation Buffer (Invitrogen) and collected in ice cold Phosphate Buffered Saline (PBS) containing a protease inhibitor cocktail (Complete Tabs, Roche Diagnostics). The cells were then pelleted by centrifugation at 1000 rpm and washed once more in the same buffer. The cells were then resuspended in 2× the cell pellet volume with ice cold lysis buffer (40 mM Tris-HCl pH7.5, 2 mM DTT, 1 mM EDTA, 10% Glycerol (v/v), 0.5% CHAPS (w/v), 1M 1-(3-sulfopropyl)pyridinium hydroxide, Complete Tab(s)) and dounce homogenized on ice. The crude lysate was then incubated on ice for 60 minutes to allow for membrane protein solubilization, followed by centrifugation at 100,000×g for 60 minutes at 4° C. The supernatant was then removed and dialyzed overnight at 4° C. against the enzyme storage buffer (40 mM Tris-HCl pH 7.5, 40 mM KCl, 2 mM DTT, 1 mM EDTA, 20% Glycerol (v/v), Complete Tab(s)). Protein concentration was determined by the Bradford assay, the enzyme was aliquotted, and stored at −80° C. Activity was assessed using the SPA described below.
SPA beads conjugated to anti-mouse IgG were incubated overnight in SPA Bead Buffer (50 mM Tris pH 8.0, 10% Glycerol (v/v)), with anti-Testosterone monoclonal antibody (2 μg antibody per 1 mg of SPA beads) under gentle rotation. The antibody saturated bead complex was then spun down at 500 rpm for 10 minutes at 4° C. and the beads were resuspended in SPA Bead Buffer at a final concentration of 0.5 mg/160 μL. The anti-T/SPA Beads were then stored at 4° C. until needed. Enzymatic assays were conducted in 30 μL total reaction volumes in 96-well white Optiplates (Perkin Elmer). The reaction buffer consisted of 50 mM MES pH 6.0, 2 mM DTT, 0.1% CHAPS, 3 mM NADPH, 10% Glycerol (v/v), 850 nM 4-Androstene-3,17-Dione, and 50 nM [3H]4-Androstene-3,17-Dione (Specific Activity 70–110Ci/mmol). Compounds were diluted such that the final concentration of ethanol and DMSO would not exceed 3% (v/v) and 1% (v/v) respectively, corresponding to concentrations that had little or no effect on enzymatic activity (data not shown). Previously prepared and frozen 17β-HSD3 enzyme was diluted into ice cold buffer containing 50 mM Mes, 40 mM KCl, 2 mM DTT, 1 mM EDTA, and 10% glycerol (v/v) and added last to the reaction mixture. The reaction was allowed to proceed for 60 minutes at room temperature and was stopped by the addition of 10 μL of 0.1N HCl. After the reactions were stopped, an excess of the anti-T/SPA Beads (0.5 mg) were added to each well to a final volume of 200 μL. The plates were sealed and shaken at ˜200 rpm on an orbital shaker at room temp for at least 90 minutes or overnight at 4° C. After allowing the beads to settle, the amount of [3H]Testosterone produced in each well was determined by scintillation counting on a Perkin Elmer TopCount instrument and collected as DPMs. The data was then analyzed and percent inhibition and/or IC50 values, based on 10 point serially diluted curves in duplicate or triplicate, were calculated using Microsoft Excel and XLFit programs. […] Input samples and unbound supernatants, from the enzymatic reactions, were quantitated by scintillation counting to aid in the calculation of bound versus free testosterone produced. Km values were calculated using the Lineweaver-Burke formula and plots where 1/v=(Km+[s])/(Vmax [s]). […]

17β-HSD3 [2] = target: T1, 17β-HSD3; set-up: made in house; CHAPS-solubilised 100,000 x g supernatant; conditions: read-out: Km for androstenedione, previously published value; human 17β-HSD3 prepared from testes microsomal fractionation; cited from earlier work
17β-HSD3 [3] = target: T1, 17β-HSD3; test: 17β-HSD3 SEAP assay (PSA reporter) in MDA MB 453/17β-HSD3 cells; type: cell-based; set-up: expressed in transfected cells
Description: Cultured MDA MB 453/17β-HSD3 cells were trypsinized, spun at 1000 rpm for 10 minutes, and resuspended in DMEM/10% cFBS supplemented with 5 mM BES at a concentration of 4×10^7 cells per mL. The cells (aliquots of 1×10^7 cells) were then transiently transfected with 3 μg of the PSA-SEAP construct by electroporation at 0.22 kVolts and 960 μFD with a time constant of […]. After a short recovery period, the cells were spun down and resuspended in DMEM/10% cFBS and plated into 96-well tissue culture plates (5×10^5 cells per well in 50 μL). After overnight adherence, the compounds were diluted in DMEM/10% and cFBS was added to the cells. 24 hours later, the medium was removed, fresh media containing the compounds was added in the presence of 10 nM Androstenedione, and this mixture was allowed to incubate for 24 hours. 25 μL of the culture supernatant was then removed and plated into 96-well black Optiplates (Perkin Elmer) for SEAP measurement as described by the reagent manufacturer (Tropix). Briefly, the supernatant was heat inactivated at 65° C. for 30 minutes and then allowed to cool to room temperature. Assay buffer (25 μL, Tropix) was then added and allowed to mix for 5 minutes followed by the addition of the Reaction buffer (25 μL, Tropix) and the plates were then incubated for 20 minutes in the dark. Plates were then read using a Packard Instruments TopCount with luminescent detection and signal was captured for 10 seconds per well and photon emission (cps) was averaged. A standard MTS assay (Promega) as described by the manufacturer, was performed in parallel to normalize the data based on cell numbers. Data analysis including percent inhibition and IC50 determination, based on 10 point serially diluted curves in duplicate, was then performed using Microsoft Excel and XLFit.
The analysis of 17β-HSD3 steroid conversion by TLC is hampered by the limitation to examine large numbers of compounds. […] To test this system, a prostate specific antigen (PSA) reporter plasmid was transfected into MDA-MB453 cells stably expressing 17β-HSD3 and stimulated with different concentrations of androstenedione (FIG. 5B).
To evaluate the suitability of this cellular assay for monitoring 17β-HSD3 cell based activity, the inhibitory effects of 18β-glycyrrhetinic acid and […] were examined.

[4] = substrate: C[C@]12CCC(=O)C=C1CC[C@@H]1[C@@H]2CC[C@]2(C)C(=O)CC[C@@H]12; test: 17β-HSD3 scintillation proximity assay (SPA); type: biochemical, human; conditions: other: 17β-HSD3 from HEK293 transfectants; 0.01 to 10 μM input androstenedione; 3 mM NADPH
Description: as §1, with “The crude lysate was then incubated on ice for 60 minutes to allow for membrane protein solubilization, followed by centrifugation at 100,000×g for 60 minutes at 4° C. The supernatant was then removed and dialyzed overnight at 4° C. against the enzyme storage buffer (40 mM Tris-HCl pH 7.5, 40 mM KCl, 2 mM DTT, 1 mM EDTA, 20% Glycerol (v/v), Complete Tab(s)).” left out
SPA beads conjugated to anti-mouse IgG were incubated overnight in SPA Bead Buffer (50 mM Tris pH 8.0, 10% Glycerol (v/v)), with anti-Testosterone monoclonal antibody (2 μg antibody per 1 mg of SPA beads) under gentle rotation. […] After allowing the beads to settle, the amount of [3H]Testosterone produced in each well was determined by scintillation counting on a Perkin Elmer TopCount instrument and collected as DPMs. The data was then analyzed and percent inhibition and/or IC50 values, based on 10 point serially diluted curves in duplicate or triplicate, were calculated using Microsoft Excel and XLFit programs. […]

## CC(C)(O)C(=O)Nc1ccc([N+](=O)[O-])c(C(F)(F)F)c1 [hydroxyflutamide]
17β-HSD3 [1]; FIG. 3B
  17β-HSD3 inhibitory activity in the SPA: did not display 17β-HSD3 inhibitory activity

## NC(=O)C1=CN([C@@H]2O[C@H](COP(=O)(O)OP(=O)(O)OC[C@H]3O[C@@H](n4cnc5c(N)ncnc54)[C@H](OP(=O)(O)O)[C@@H]3O)[C@@H](O)[C@H]2O)C=CC1 [NADPH]
17β-HSD3 [1]; Lineweaver-Burke plots, read-out: Km for NADPH
  Km: 30 µM

## C[C@]12CCC(=O)C=C1CC[C@@H]1[C@@H]2CC[C@]2(C)C(=O)CC[C@@H]12 [androstenedione]
17β-HSD3 [2]
  Km: 0.72 µM
17β-HSD3 [3]
  induction of PSA reporter: 9 fold
17β-HSD3 [3]; 12 nM androstenedione, 17β-HSD3-MDA-MB453 transfectants
  activation of PSA reporter: 9 fold
17β-HSD3 [3]; 1 μM androstenedione, 17β-HSD3-MDA-MB453 cells
  induction of PSA reporter: 25 fold

B1: human 17β-HSD3 (Homo sapiens) (protein)
chain: MGDVLEQFFILTGLLVCLACLAKCVRFSRCVLLNYWKVLPKSFLRSMGQWAVITGAGDGIGKAYSFELAKRGLNVVLISRTLEKLEAIATEIERTTGRSVKIIQADFTKDDIYEHIKEKLAGLEIGILVNNVGMLPNLLPSHFLNAPDEIQSLIHCNITSVVKMTQLILKHMESRQKGLILNISSGIALFPWPLYSMYSASKAFVCAFSKALQEEYKAKEVIIQVLTPYAVSTAMTKYLNTNVITKTADEFVKESLNYVTIGGETCGCLAHEILAGFLSLIPAWAFYSGAFQRLLLTHYVAYLKLNTKVR
notes: made in house; CHAPS-solubilised 100,000 x g supernatant
[4]
  Km: 0.92 µM
